{
  "source": "patent US5804589A",
  "about": "“Use of N-cyclohexyl benzamides for treating bowel disorders” (Laboratoires Jacques Logeais, priority 1995, dated 1998)",
  "key": {"[1]": {"assay": "Visceral sensitivity: abdominal contractures produced by rectal distension after acetic acid irritation", "type": "in vivo", "conditions": "rat, 10 min distension, mean of five rats, placebo 23.8 ± 1.6, * p < 0.05 vs placebo", "source_text": "The first model consists in observing, in the rat, the abdominal contractures produced by a rectal distension applied to a mucous membrane which has been irritated beforehand. The number of contractures is proportional to the intensity of the pain experienced. A similar model has been described in Neurogastroenterol. and Mot. (1994), 6, 140, where it is shown that the products which decrease the perception of pain in man decrease the number of contractures observed in the rat.\nMale Sprague-Dawley rats weighing 180 g are deprived of food for 12 hours. Under slight fluothane anaesthesia, an intrarectal probe is introduced (5 cm from the anus) and 1.5 ml of 1% dilute acetic acid are injected. The acid immediately flows out via the anus. This rapid contact of the acid makes it possible to irritate the mucous membrane (model for rectal colitis). 1 h 30 after irritation, a small latex balloon (diameter when empty 2 mm, length 1 cm), mounted on a polyurethane catheter (int. diameter 1 mm), is introduced into the rectum (5 cm from the anus) under slight fluothane anaesthesia. The catheter is attached to the base of the tail with adhesive tape and protected by a glass tube. The test product is administered by force feeding and the rat is then introduced into a crystallizing dish covered with a grid. The free ends of the tube and of the catheter are passed through the grid in order to carry out the dilations.\nA distension is carried out 2 h 30 after irritating the rectum. The small balloon is dilated with 1.5 ml of distilled water (intracolic pressure equal to 60 mm Hg on average). Dilation is maintained for 10 minutes, during which the abdominal contractures are counted. The small balloon is then deflated by sucking off the distilled water.\nThey are expressed by the mean number of contractures observed with respect to five rats for the 10 minutes during which they are subjected to a distension."}, "[2]": {"assay": "Ulcerative colitis induced by intracolic trinitrobenzenesulphonic acid (TNB): weight, macroscopic and histological analysis of colon", "type": "in vivo, rat", "conditions": "for Mean weight of the animals: in g", "source_text": "A model for ulcerative colitis induced in the rat by an intracolic instillation of trinitrobenzenesulphonic acid has already been described, for example in Gut (1992), 33, 1498-1503.\nThe beneficial effect of a treatment on the development of this colitis can be evaluated, on the one hand, by the overall state of health of the animal, represented for example by the change in weight, and, on the other hand, by a histological study of the colon at the end of the experiment.\nMale Sprague-Dawley rats (140-150 g), deprived of food since the previous day, are subjected, under general anaesthesia (isoflurane), to irritation of the mucous membrane of the distal colon (7 cm from the anus) with 1 ml of a 50 mg/ml aqueous trinitrobenzenesulphonic acid (TNB) solution. On the following day, the rats are randomized in two equal-sized groups (n=7) which then receive the treatment (placebo or product) by forcefeeding, mornings and evenings. The products are administered at 1 mg/kg p.o. twice daily.\nThe treatment is administered for the ten days which follow irritation of the colon. The animals are weighed every morning from D5 to D10. The animals are deprived of food on D9 and humanely killed on D10. The colons are removed and macroscopically and then histologically examined.\nThe macroscopic appearance of the colons was graded as follows:\nSections of the colon are fixed with formaldehyde and enclosed in paraffin blocks. 5 μm sections are prepared, stained with haemalum-eosin and evaluated by optical microscopy according to the following gradings:\nThe colon was divided into three mucous, submucous and muscular layers and each layer was graded according to the preceding criteria.\nThe sum of the gradings attributed to each substructure defines, per animal, an index which takes into account both the afflux of the inflammatory cells and the architectural distortion."}, "5-HT3 receptors [3]": {"target": "T1, 5-HT3 receptors (Mus musculus, UniProt P23979)", "T1 sequence (P23979 24-489)": "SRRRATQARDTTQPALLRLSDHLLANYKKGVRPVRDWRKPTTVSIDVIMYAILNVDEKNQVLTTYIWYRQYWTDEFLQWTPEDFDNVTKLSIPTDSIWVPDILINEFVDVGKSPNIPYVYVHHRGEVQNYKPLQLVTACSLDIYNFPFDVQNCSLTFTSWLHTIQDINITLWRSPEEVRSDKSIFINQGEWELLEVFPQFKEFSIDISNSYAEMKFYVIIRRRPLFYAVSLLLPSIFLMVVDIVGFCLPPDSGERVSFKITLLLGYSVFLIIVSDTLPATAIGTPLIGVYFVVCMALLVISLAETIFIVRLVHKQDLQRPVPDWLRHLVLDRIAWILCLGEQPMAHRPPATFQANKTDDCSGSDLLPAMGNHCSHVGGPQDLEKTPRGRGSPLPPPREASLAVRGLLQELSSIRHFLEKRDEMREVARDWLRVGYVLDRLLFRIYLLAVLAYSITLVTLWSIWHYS", "assay": "Affinity for 5-HT3 receptors, membrane preparations of NG 108-15 cells, tritiated BRL 43694 as ligand", "type": "binding", "conditions": "NG 108-15 cell membranes", "method": "The affinity of the compounds for 5-HT3 receptors was measured according to the method described in Bioch. Pharmacol. (1990), 40, (7), 1541-1550, by using membrane preparations of NG 108-15 cells and tritiated BRL 43694 as specific ligand."}, "5-HT3 receptors [4]": {"target": "T2, 5-HT3 receptors (Rattus norvegicus, UniProt P35563)", "T2 construct": "from tissue; host or cells: whole animal (endogenous receptor)", "T2 sequence (P35563 24-483)": "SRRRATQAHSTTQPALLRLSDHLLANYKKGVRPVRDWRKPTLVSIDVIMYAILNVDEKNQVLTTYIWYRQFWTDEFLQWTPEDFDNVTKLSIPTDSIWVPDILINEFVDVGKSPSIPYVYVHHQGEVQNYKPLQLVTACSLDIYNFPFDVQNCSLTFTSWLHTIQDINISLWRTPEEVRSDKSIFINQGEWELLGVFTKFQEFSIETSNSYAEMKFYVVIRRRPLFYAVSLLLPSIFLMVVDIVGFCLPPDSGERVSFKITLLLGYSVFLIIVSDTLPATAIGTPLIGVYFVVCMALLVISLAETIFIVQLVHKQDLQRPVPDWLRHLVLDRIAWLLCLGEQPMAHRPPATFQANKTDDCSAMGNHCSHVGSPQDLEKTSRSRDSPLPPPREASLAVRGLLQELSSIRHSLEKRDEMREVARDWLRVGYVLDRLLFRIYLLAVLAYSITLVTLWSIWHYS", "assay": "Bezold-Jarisch reflex: inhibition of bradycardia induced by serotonin (5-HT3 antagonist activity in vivo)", "conditions": "iv; read-out: IC50 for antagonism of serotonin-induced bradycardia", "method": "The 5-HT3 antagonist activity of products was evaluated in vivo by measuring their property of inhibiting a bradycardia induced by serotonin, according to the method described in J. Pharm. & Exp. Therap. (1989), 248, 197-201."}},
  "note": "pKi: −log10 of the molar value. “And” between values parts separate entries of the source, which are not always exact repeats. Equal values may be shown once. “Also recorded” adds a separate entry of the source.",
  "data": [
    {"smiles": "CC1CCN(C[C@H]2CCCC[C@@H]2NC(=O)c2cc(Cl)c(N)cc2OCC2CC2)CC1", "note": "[Compound 9]", "values": [
      {"measurement": "No. of contractures ± standard deviation", "setting": "[1]; 0.3 mg/kg p.o.", "value": "6.3 ± 3.5"}
    ]},
    {"smiles": "COc1cc(N)c(Cl)cc1C(=O)N[C@@H]1CCCC[C@@H]1CN1CCC(C)CC1", "note": "[Compound 1]", "values": [
      {"measurement": "No. of contractures ± standard deviation", "setting": "[1]; 0.3 mg/kg p.o.", "value": "3.4 ± 2.1"}
    ]},
    {"smiles": "COc1cc(N)c(Cl)cc1C(=O)N[C@@H]1CCCC[C@@H]1CN1CCC(CO)CC1", "note": "(relative stereo) [Compound 3]", "values": [
      {"measurement": "No. of contractures ± standard deviation", "setting": "[1]; 0.3 mg/kg p.o.", "value": "13.2 ± 2.4"}
    ]},
    {"smiles": "COc1cc(N)c(Cl)cc1C(=O)N[C@@H]1CCCC[C@@H]1CN1CCC(C)(C)CC1", "note": "(relative stereo) [Compound 4]", "values": [
      {"measurement": "No. of contractures ± standard deviation", "setting": "[1]; 0.3 mg/kg p.o.", "value": "10.6 ± 4.2"}
    ]},
    {"smiles": "CC1CCN(C[C@H]2CCCC[C@H]2NC(=O)c2cc(Cl)c(N)cc2OC(C)C)CC1", "note": "(relative stereo) [Compound 7]", "values": [
      {"measurement": "No. of contractures ± standard deviation", "setting": "[1]; 0.3 mg/kg p.o.", "value": "7.6 ± 0.5"}
    ]},
    {"smiles": "COc1cc(N)c(Cl)cc1C(=O)N[C@@H]1CCCC[C@@H]1CN1CCC(O)CC1", "note": "(relative stereo) [Compound 2]", "values": [
      {"measurement": "No. of contractures ± standard deviation", "setting": "[1]; 0.3 mg/kg p.o.", "value": "9.2 ± 5.3"}
    ]},
    {"smiles": "CC1CCN(C[C@H]2CCCC[C@H]2NC(=O)c2cc(Cl)c(N)cc2OC2CCCC2)CC1", "note": "[Compound 8]", "values": [
      {"measurement": "No. of contractures ± standard deviation", "setting": "[1]; 0.3 mg/kg p.o.", "value": "9.2 ± 1.3"}
    ]},
    {"smiles": "CC1CCN(C[C@H]2CCCC[C@H]2NC(=O)c2cc(Cl)c(N)cc2OCC2CC2)CC1", "note": "[Compound 6]", "values": [
      {"measurement": "No. of contractures ± standard deviation", "setting": "[1]; 0.1 mg/kg p.o.", "value": "3.3 ± 1.9"},
      {"measurement": "No. of contractures ± standard deviation", "setting": "[1]; 0.3 mg/kg p.o.", "value": "7.3 ± 2.6"},
      {"measurement": "No. of contractures ± standard deviation", "setting": "[1]; 1 mg/kg p.o.", "value": 9.4},
      {"measurement": "change in weight versus placebo", "setting": "[2]; 1 mg/kg p.o. twice daily, TNB colitis", "value": "significantly improved change in weight"},
      {"measurement": "Mean weight of the animals", "setting": "[2]; 5 days after treatment with TNB, 1 mg/kg p.o. twice daily, placebo 130 ± 8", "value": "153 ± 15"},
      {"measurement": "Mean weight of the animals", "setting": "[2]; 6 days after treatment with TNB, 1 mg/kg p.o. twice daily, placebo 139 ± 18, * p < 0.05", "value": "177 ± 23"},
      {"measurement": "Mean weight of the animals", "setting": "[2]; 7 days after treatment with TNB, 1 mg/kg p.o. twice daily, placebo 142 ± 20, * p < 0.05", "value": "186 ± 27"},
      {"measurement": "Mean weight of the animals", "setting": "[2]; 8 days after treatment with TNB, 1 mg/kg p.o. twice daily, placebo 147 ± 23, * p < 0.05", "value": "194 ± 34"},
      {"measurement": "Mean weight of the animals", "setting": "[2]; 9 days after treatment with TNB, 1 mg/kg p.o. twice daily, placebo 158 ± 30, * p < 0.05", "value": "206 ± 39"},
      {"measurement": "Index (histological; sum of gradings of mucous, submucous and muscular layers per animal)", "setting": "[2]; D10, 1 mg/kg p.o. twice daily, each index value shared by the number of animals in the column beside it", "value": "11 and 3 and 1 and 0"},
      {"measurement": "Number of animals at macroscopic colon Stage 0", "setting": "[2]; Stage 0: no trace of irritation, D10, 1 mg/kg p.o. twice daily, placebo 0", "value": 0},
      {"measurement": "Number of animals at macroscopic colon Stage 1", "setting": "[2]; Stage 1: slightly vasodilated mucous membrane, D10, placebo 0", "value": 1},
      {"measurement": "Number of animals at macroscopic colon Stage 2", "setting": "[2]; Stage 2: vasodilated mucous membrane and adhesions, D10, placebo 0", "value": 4},
      {"measurement": "Number of animals at macroscopic colon Stage 3", "setting": "[2]; Stage 3: haemorrhagic and sclerotic mucous membrane and adhesions, D10, placebo 3", "value": 2},
      {"measurement": "Number of animals at macroscopic colon Stage 4", "setting": "[2]; Stage 4: ulcerated and haemorrhagic mucous membrane and adhesions, D10, placebo 3", "value": 0},
      {"measurement": "seriousness of the macroscopic colon lesions versus placebo", "setting": "[2]; chi-squared test, Stages 1 and 2 vs Stages 3 and 4", "value": "seriousness of the lesions is significantly greater with the placebo than with Compound 6; also recorded: lesional appearance of the colon is less serious"},
      {"measurement": "inflammatory state of the colon (histology) versus placebo", "setting": "[2]; chi-squared test, indices 0 to 5 vs 6 to 12", "value": "inflammatory state is significantly more serious treated with the placebo than treated with Compound 6; also recorded: decrease in the afflux of the inflammatory cells"},
      {"measurement": "size of the class combining histological indices 0 to 5", "setting": "[2]; number of animals, placebo 0", "value": 5},
      {"measurement": "size of the class of macroscopic Stages 1 and 2", "setting": "[2]; number of animals, placebo 0", "value": 5},
      {"measurement": "size of the class combining histological indices 6 to 12", "setting": "[2]; number of animals, placebo 6", "value": 2},
      {"measurement": "size of the class of macroscopic Stages 3 and 4", "setting": "[2]; number of animals, placebo 6", "value": 2}
    ]},
    {"smiles": "COc1cc(N)c(Cl)cc1C(=O)N[C@@H]1CCCC[C@@H]1CN1CCC(C(C)(C)C)CC1", "note": "(relative stereo) [Compound 5]", "values": [
      {"measurement": "No. of contractures ± standard deviation", "setting": "[1]; 0.3 mg/kg p.o.", "value": "10.6 ± 3.8"}
    ]},
    {"smiles": "Cc1nccn1CC1CCc2c(c3ccccc3n2C)C1=O", "note": "(stereo not shown) [ondansetron]", "values": [
      {"measurement": "pKi", "setting": "5-HT3 receptors [3]", "value": 7.80},
      {"measurement": "ED50", "setting": "5-HT3 receptors [4]", "value": "~3", "unit": "µg/kg"}
    ]}
  ]
}
